Laboratory results from ChEMBL document CHEMBL5724914, “Linking interpersonal differences in gut microbiota composition and drug biotransformation activity” (2024).

assay: (§1) The drug is tested on Z-004 corresponding to metagenome with ENA study accession number: PRJEB37062 and ENA sample accession number: ERS12561804 for biotransformation under anaerobic condition. The drug concentrations were measured over 9 timepoints collected between 0 and 24 hours of incubation by liquid-chromatography-coupled mass spectrometry (LC–MS); conditions: 2 µM
Also: call rule not given here.

Compound	Bacterial Biotransformation
Cc1cc2c(s1)Nc1ccccc1N=C2N1CCN(C)CC1 [OLANZAPINE]	Compound metabolized
COc1ccc(Cc2nccc3cc(OC)c(OC)cc23)cc1OC [PAPAVERINE]	Compound NOT metabolized

assay: (§2) The drug is tested on WLS-350 corresponding to human gut metagenome with ENA study accession number: PRJEB37062 and ENA sample accession number: ERS12561789 for biotransformation under anaerobic condition. The drug concentrations were measured over 9 timepoints collected between 0 and 24 hours of incubation by liquid-chromatography-coupled mass spectrometry (LC–MS); conditions: 2 µM

Compound	Bacterial Biotransformation
Cc1cc2c(s1)Nc1ccccc1N=C2N1CCN(C)CC1 [OLANZAPINE]	Compound NOT metabolized
COc1ccc(Cc2nccc3cc(OC)c(OC)cc23)cc1OC [PAPAVERINE]	Compound metabolized

assay: as §1, with “Z-023” for “Z-004”, “ERS12561822” for “ERS12561804”; conditions: 2 µM

Compound	Bacterial Biotransformation
Cc1cc2c(s1)Nc1ccccc1N=C2N1CCN(C)CC1 [OLANZAPINE]	Compound NOT metabolized
COc1ccc(Cc2nccc3cc(OC)c(OC)cc23)cc1OC [PAPAVERINE]	Compound metabolized

assay: as §2, with “Z-007” for “WLS-350”, “rat” for “human”, “ERS12561807” for “ERS12561789”; conditions: 2 µM

Compound	Bacterial Biotransformation
Cc1cc2c(s1)Nc1ccccc1N=C2N1CCN(C)CC1 [OLANZAPINE]	Compound NOT metabolized
COc1ccc(Cc2nccc3cc(OC)c(OC)cc23)cc1OC [PAPAVERINE]	Compound NOT metabolized

conditions: human gut metagenome, 24 h, 2 µM

Compound	Bacterial Biotransformation
Cc1cc2c(s1)Nc1ccccc1N=C2N1CCN(C)CC1 [OLANZAPINE]	Compound NOT metabolized
COc1ccc(Cc2nccc3cc(OC)c(OC)cc23)cc1OC [PAPAVERINE]	Compound metabolized

conditions: human gut metagenome, 24 h, 2 µM; remark: another data set of the same source

Compound	Bacterial Biotransformation
Cc1cc2c(s1)Nc1ccccc1N=C2N1CCN(C)CC1 [OLANZAPINE]	Compound NOT metabolized
COc1ccc(Cc2nccc3cc(OC)c(OC)cc23)cc1OC [PAPAVERINE]	Compound NOT metabolized

conditions: human gut metagenome, 24 h, 2 µM; remark: another data set of the same source

Compound	Bacterial Biotransformation
Cc1cc2c(s1)Nc1ccccc1N=C2N1CCN(C)CC1 [OLANZAPINE]	Compound metabolized
COc1ccc(Cc2nccc3cc(OC)c(OC)cc23)cc1OC [PAPAVERINE]	Compound metabolized

assay: as §2, with “Z-013” for “WLS-350”, “rabbit” for “human”, “ERS12561813” for “ERS12561789”; conditions: 2 µM

Compound	Bacterial Biotransformation
Cc1cc2c(s1)Nc1ccccc1N=C2N1CCN(C)CC1 [OLANZAPINE]	Compound NOT metabolized
COc1ccc(Cc2nccc3cc(OC)c(OC)cc23)cc1OC [PAPAVERINE]	Compound NOT metabolized

assay: as §2, with “WLS-052” for “WLS-350”, “ERS12561747” for “ERS12561789”; conditions: 2 µM

Compound	Bacterial Biotransformation
Cc1cc2c(s1)Nc1ccccc1N=C2N1CCN(C)CC1 [OLANZAPINE]	Compound NOT metabolized
COc1ccc(Cc2nccc3cc(OC)c(OC)cc23)cc1OC [PAPAVERINE]	Compound metabolized

assay: as §2, with “Z-022” for “WLS-350”, “mouse” for “human”, “ERS12561821” for “ERS12561789”; conditions: 2 µM

Compound	Bacterial Biotransformation
Cc1cc2c(s1)Nc1ccccc1N=C2N1CCN(C)CC1 [OLANZAPINE]	Compound NOT metabolized
COc1ccc(Cc2nccc3cc(OC)c(OC)cc23)cc1OC [PAPAVERINE]	Compound metabolized

conditions: human gut metagenome, 24 h, 2 µM; remark: another data set of the same source

Compound	Bacterial Biotransformation
Cc1cc2c(s1)Nc1ccccc1N=C2N1CCN(C)CC1 [OLANZAPINE]	Compound NOT metabolized
COc1ccc(Cc2nccc3cc(OC)c(OC)cc23)cc1OC [PAPAVERINE]	Compound metabolized

assay: as §2, with “WLS-010” for “WLS-350”, “ERS12561743” for “ERS12561789”; conditions: 2 µM

Compound	Bacterial Biotransformation
Cc1cc2c(s1)Nc1ccccc1N=C2N1CCN(C)CC1 [OLANZAPINE]	Compound NOT metabolized
COc1ccc(Cc2nccc3cc(OC)c(OC)cc23)cc1OC [PAPAVERINE]	Compound metabolized

conditions: human gut metagenome, 24 h, 2 µM; remark: another data set of the same source

Compound	Bacterial Biotransformation
Cc1cc2c(s1)Nc1ccccc1N=C2N1CCN(C)CC1 [OLANZAPINE]	Compound NOT metabolized
COc1ccc(Cc2nccc3cc(OC)c(OC)cc23)cc1OC [PAPAVERINE]	Compound metabolized

conditions: human gut metagenome, 24 h, 2 µM; remark: another data set of the same source

Compound	Bacterial Biotransformation
Cc1cc2c(s1)Nc1ccccc1N=C2N1CCN(C)CC1 [OLANZAPINE]	Compound NOT metabolized
COc1ccc(Cc2nccc3cc(OC)c(OC)cc23)cc1OC [PAPAVERINE]	Compound metabolized

conditions: human gut metagenome, 24 h, 2 µM; remark: another data set of the same source

Compound	Bacterial Biotransformation
Cc1cc2c(s1)Nc1ccccc1N=C2N1CCN(C)CC1 [OLANZAPINE]	Compound NOT metabolized
COc1ccc(Cc2nccc3cc(OC)c(OC)cc23)cc1OC [PAPAVERINE]	Compound metabolized

assay: as §2, with “Z-006” for “WLS-350”, “mouse” for “human”, “ERS12561806” for “ERS12561789”; conditions: 2 µM

Compound	Bacterial Biotransformation
Cc1cc2c(s1)Nc1ccccc1N=C2N1CCN(C)CC1 [OLANZAPINE]	Compound NOT metabolized
COc1ccc(Cc2nccc3cc(OC)c(OC)cc23)cc1OC [PAPAVERINE]	Compound NOT metabolized

assay: as §2, with “Z-009” for “WLS-350”, “pig” for “human”, “ERS12561809” for “ERS12561789”; conditions: 2 µM

Compound	Bacterial Biotransformation
Cc1cc2c(s1)Nc1ccccc1N=C2N1CCN(C)CC1 [OLANZAPINE]	Compound NOT metabolized
COc1ccc(Cc2nccc3cc(OC)c(OC)cc23)cc1OC [PAPAVERINE]	Compound metabolized

assay: as §2, with “Z-025” for “WLS-350”, “rabbit” for “human”, “ERS12561824” for “ERS12561789”; conditions: 2 µM

Compound	Bacterial Biotransformation
Cc1cc2c(s1)Nc1ccccc1N=C2N1CCN(C)CC1 [OLANZAPINE]	Compound metabolized
COc1ccc(Cc2nccc3cc(OC)c(OC)cc23)cc1OC [PAPAVERINE]	Compound metabolized

conditions: human gut metagenome, 24 h, 2 µM; remark: another data set of the same source

Compound	Bacterial Biotransformation
Cc1cc2c(s1)Nc1ccccc1N=C2N1CCN(C)CC1 [OLANZAPINE]	Compound NOT metabolized
COc1ccc(Cc2nccc3cc(OC)c(OC)cc23)cc1OC [PAPAVERINE]	Compound metabolized
